In US20140128359A1, “N-Heterocyclic Substituent-Containing Antibiotic, Preparation and Use Thereof” (priority 2012, published 2014):
Read-outs that look alike come from different tables or passages of the source.

How the values were obtained:
[1] = Muscle stimulation test on rabbits; assay type: in vivo, New Zealand rabbits
Source text: The inventors have conducted the muscle stimulation test of Compounds Ia and II on rabbits. The test is as follows. Eight New Zealand rabbits were divided into three groups. Two groups, containing three rabbits per group, were administrated with Compound Ia and Compound II, respectively. The third group, containing two rabbits, was used as a negative control group. The rabbits were intramuscularly injected with high concentrations of the compounds into the left quadriceps and with low concentration into the right quadriceps. The negative control group was injected with an equal concentration of sodium chloride into the quadriceps of both sides. Each quadriceps was administrated with 1.0 mL once a day for three consecutive days. One or two rabbits from each group were anatomized after 48 hours of the injection. The remaining rabbits were anatomized after the end of the two-week recovery period.

[2] = Solid state stability, 72 hours in storage at various temperatures; assay type: physicochemical
Source text: (§1) Compared to Compound II, Compound I has better stability in aqueous solution (see Table 2) and in the solid state (See Table 3). Thus Compound I can be stored without freezing or special treatment.

pH of aqueous solution = assay type: physicochemical
[3] = assay type: physicochemical; conditions: for content in aqueous injection solution: 37° C.
Source text: as §1

[4] = Acute toxicity tests on rats; assay type: in vivo; conditions: intravenous injection
[5] = assay type: in vivo
Description: The inventors conducted preliminary pharmacokinetic study of Compound Ia on Beagle dogs. The Beagle dogs were allowed to drink water freely but not to eat food for 16 hours before and 4 hours after the intravenous injection of 50 mg/kg.bw of the compound. Intravenous blood sampling took place at 0, 0.083, 0.17, 0.25, 0.5, 1, 1.5, 2, 3, 4, 6, 9, 12 hours, respectively, after the injection, each blood sample being 3 mL. Thereafter the dogs were given the drugs every other week and blood samples were taken according to the above manner. The blood samples were added to the centrifuge tubes containing heparin and thoroughly mixed by centrifuging at 4000 rpm for 10 minutes. The blood plasma was separated and an abstraction agent (methanol/ethyl acetate 3:2 V/V) was added to and mixed with it by centrifuging at 10000 rpm for 10 minutes. The top, clear liquid, 20 μL, was taken and analyzed by HPLC.

Pneumonia Chain Coccus [6] = experiment: In-vivo antibacterial activity (protection of rats); conditions: against Pneumonia Chain Coccus
Excrement Enterococcus [7] = experiment: as above; conditions: against Excrement Enterococcus
Type B Chain Coccus = experiment: Vitro bacteriostasis, two-fold agar dilution method; assay type: cell-based
Description: (§2) Vitro bacteriostasis experiments of Compounds Ia, Ib, and Ic were performed using the two-fold agar dilution method.

Type A Chain Coccus = experiment: as above; assay type: cell-based
Description: as §2

Moraxella Catarrhalis [8] = experiment: as above; assay type: cell-based
Description: as §2

Excrement Enterococcus [9] = experiment: as above; assay type: cell-based
Description: as §2

Pneumonia Chain Coccus [10] = experiment: as above; assay type: cell-based
Description: as §2

Shigella = experiment: as above; assay type: cell-based
Description: as §2

Haemophilus Influenzae = experiment: as above; assay type: cell-based
Description: as §2

Moraxella Catarrhalis [11] = experiment: In-vivo antibacterial activity (protection of rats); conditions: against Moraxella Catarrhalis
[12] = healthy Beagle dogs, single intravenous injection 50 mg/kg.bw

CC(C)N=C(NC(C)C)SCC(=O)NC1C(=O)N2C(C(=O)O)=C(CSc3nc(=O)c(=O)[nH]n3C)CSC12 (stereo not drawn) [Compound II, 7-(α-((N,N′-diisopropylamidino)thio)acetylamino)-3-(((1,2,5,6-tetrahydro-2-methyl-5,6-dioxo-1,2,4-triazin-3-yl)thio)methyl) cephalosporanic acid, reference compound]
irritation (general statement) ([1]; rabbit, in vivo): irritates muscles and blood vessels
muscle irritation observed ([1]; rabbit, in vivo): various levels of intense irritation
content after 72 hours in storage ([2]; 10° C.): 97.9%
content after 72 hours in storage ([2]; 40° C.): 96.3%
content after 72 hours in storage ([2]; 60° C.): 92.75%
content after 72 hours in storage ([2]; −5° C.): 98.0%
pH (pH of aqueous solution; concentration not given): 3.2
pH value of saturated aqueous solution (pH of aqueous solution; saturated aqueous solution): 3.2
stability (general statement) [3]: low stability
content in aqueous injection solution ([3]; 0 hr): 98.50%
content in aqueous injection solution ([3]; 0.2 hr): 94.33%
content in aqueous injection solution ([3]; 1 hr): 84.26%
content in aqueous injection solution ([3]; 2 hr): 77.04%
content in aqueous injection solution ([3]; 3 hr): 71.06%
content in aqueous injection solution ([3]; 4 hr): 66.48%

CC(C)N=C(NC(C)C)SCC(=O)NC1C(=O)N2C(C(=O)[O-])=C(CSc3nc(=O)c(=O)[nH]n3C)CSC12.[Na+] (stereo not drawn) [Compound Ia, 7-(α-((N,N′-diisopropylamidino)thio)acetylamino)-3-(((1,2,5,6-tetrahydro-2-methyl-5,6-dioxo-1,2,4-triazin-3-yl)thio)methyl) cephalosporanic acid mono sodium salt]
muscle irritation observed ([1]; rabbits, intramuscular into quadriceps, 1.0 mL once a day for three days, 48 hours and 14 days after last administration): slight irritation
content after 72 hours in storage ([2]; 10° C.): 96.9%
content after 72 hours in storage ([2]; 40° C.): 96.6%
content after 72 hours in storage ([2]; 60° C.): 96.4%
content after 72 hours in storage ([2]; −5° C.): 97.0%
LD50 [4]: 1747.6 mg/kg
AUC [5, 12]: 108.29 ± 18.17 µg·h/mL
ClB [5, 12]: 7.83 ± 1.5 mL/min/kg
Cmax [5, 12]: 116.35 ± 12.06 µg/mL
V1 [5, 12]: 0.25 ± 0.07 L/kg
VB [5, 12]: 1.61 ± 0.30 L/kg
t1/2α [5, 12]: 37.8 ± 7.2 min
t1/2β [5, 12]: 155 ± 2.4 min
drug concentration after 12 hours of the administration ([5]; healthy Beagle dogs, single intravenous injection 50 mg/kg.bw, 12 hours): 0.39 ± 0.09 µg/mL
protection for rats (Pneumonia Chain Coccus [6]): excellent protection
protection for rats (Excrement Enterococcus [7]): excellent protection
pH (pH of aqueous solution; concentration 0.1 g/mL): 7.3
pH (pH of aqueous solution; concentration not given): 7.3
solubility in acetone (Solubility; acetone): not readily soluble
solubility in anhydrous ethanol (Solubility; anhydrous ethanol): not readily soluble
solubility in methanol (Solubility; methanol): readily soluble
solubility in water (Solubility; water): readily soluble
MIC90 (Type B Chain Coccus): 0.0625 µg/mL
MIC90 (Type A Chain Coccus): 0.5 µg/mL
MIC90 (Moraxella Catarrhalis [8]): 1 µg/mL
MIC90 (Excrement Enterococcus [9]): 8 µg/mL
MIC90 (Pneumonia Chain Coccus [10]): 0.125 µg/mL
MIC90 (Shigella): 4 µg/mL
MIC90 (Haemophilus Influenzae): 0.5 µg/mL
content in aqueous injection solution ([3]; 0 hr): 98.60%
content in aqueous injection solution ([3]; 0.2 hr): 98.60%
content in aqueous injection solution ([3]; 1 hr): 97.98%
content in aqueous injection solution ([3]; 2 hr): 97.79%
content in aqueous injection solution ([3]; 3 hr): 97.24%
content in aqueous injection solution ([3]; 4 hr): 97.13%
protection for rats (Moraxella Catarrhalis [11]): excellent protection

CC(C)N=C(NC(C)C)SCC(=O)NC1C(=O)N2C(C(=O)[O-])=C(CSc3nc(=O)c(=O)[nH]n3C)CSC12.CC(C)N=C(NC(C)C)SCC(=O)NC1C(=O)N2C(C(=O)[O-])=C(CSc3nc(=O)c(=O)[nH]n3C)CSC12.[Na+].[Na+] (stereo not drawn) [Compound Ib, disodium 7-(α-((N,N′-diisopropylamidino)thio)acetylamino)-3-(((1,2,5,6-tetrahydro-2-methyl-5,6-dioxo-1,2,4-triazin-3-yl)thio)methyl) cephalosporanate]
pH (pH of aqueous solution; concentration 0.1 g/mL): 10.02
MIC90 (Type B Chain Coccus): 0.0125 µg/mL
MIC90 (Type A Chain Coccus): 0.1 µg/mL
MIC90 (Moraxella Catarrhalis [8]): 0.5 µg/mL
MIC90 (Excrement Enterococcus [9]): 4 µg/mL
MIC90 (Pneumonia Chain Coccus [10]): 0.5 µg/mL
MIC90 (Shigella): 4 µg/mL
MIC90 (Haemophilus Influenzae): 0.5 µg/mL
content in aqueous injection solution ([3]; 0 hr): 98.80%
content in aqueous injection solution ([3]; 0.2 hr): 98.54%
content in aqueous injection solution ([3]; 1 hr): 97.14%
content in aqueous injection solution ([3]; 2 hr): 96.66%
content in aqueous injection solution ([3]; 3 hr): 95.21%
content in aqueous injection solution ([3]; 4 hr): 94.30%

CC(C)N=C(NC(C)C)SCC(=O)NC1C(=O)N2C(C(=O)[O-])=C(CSc3nc(=O)c(=O)[nH]n3C)CSC12.[K+] (stereo not drawn) [Compound Ic, 7-(α-((N,N′-diisopropylamidino)thio)acetylamino)-3-(((1,2,5,6-tetrahydro-2-methyl-5,6-dioxo-1,2,4-triazin-3-yl)thio)methyl) cephalosporanic acid monopotassium salt]
MIC90 (Type B Chain Coccus): 0.0156 µg/mL
MIC90 (Type A Chain Coccus): 0.1 µg/mL
MIC90 (Moraxella Catarrhalis [8]): 0.5 µg/mL
MIC90 (Excrement Enterococcus [9]): 8 µg/mL
MIC90 (Pneumonia Chain Coccus [10]): 0.5 µg/mL
MIC90 (Shigella): 4 µg/mL
MIC90 (Haemophilus Influenzae): 0.5 µg/mL

CC(=O)OCC1=C(C(=O)O)N2C(=O)[C@@H](NC(=O)CSC(=NC(C)C)NC(C)C)[C@H]2SC1 [cefathiamidine, Cefathiamidine, reference compound]
LD50 [4]: 824.2 mg/kg
biological half-life in blood ([5]; Beagle dogs, preliminary pharmacokinetic study): 0.65 hours
t1/2β [5, 12]: 39 ± 1.8 min
